Test results: patent US5583147A, “Amides for the treatment of atherosclerosis” (The Dupont Merck Pharmaceutical Company, priority 1994, dated 1996)

Target: T1, Acyl-CoA: Cholesterol Acyltransferase (ACAT) (Rattus norvegicus, UniProt Q7TQM4)
T1 construct: centrifuged at 105,000×g for 1 hour to pellet the microsomes; from tissue; host or cells: liver microsomes of male Sprague Dawley rats
T1 sequence (Q7TQM4 1-524): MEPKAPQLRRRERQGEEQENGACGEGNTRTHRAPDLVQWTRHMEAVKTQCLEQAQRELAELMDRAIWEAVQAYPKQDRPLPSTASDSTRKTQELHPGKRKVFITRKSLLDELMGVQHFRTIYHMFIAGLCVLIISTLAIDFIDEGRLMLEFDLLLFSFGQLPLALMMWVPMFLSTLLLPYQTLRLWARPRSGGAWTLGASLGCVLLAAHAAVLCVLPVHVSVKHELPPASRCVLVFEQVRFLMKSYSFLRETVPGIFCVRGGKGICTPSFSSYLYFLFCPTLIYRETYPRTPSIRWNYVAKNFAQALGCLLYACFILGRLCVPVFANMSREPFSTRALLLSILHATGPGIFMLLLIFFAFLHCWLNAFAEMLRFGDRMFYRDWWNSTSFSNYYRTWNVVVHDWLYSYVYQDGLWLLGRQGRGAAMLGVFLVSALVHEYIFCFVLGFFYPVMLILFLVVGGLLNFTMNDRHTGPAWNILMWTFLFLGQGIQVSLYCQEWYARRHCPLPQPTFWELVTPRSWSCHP
Assay: Inhibition of Acyl-CoA: Cholesterol Acyltransferase (ACAT) in Hepatic Microsomes (In Vitro Assay)
Format: biochemical, rat (male Sprague Dawley)
Conditions: 75 μM 14C-oleoyl-CoA, pH 7.4, 37° C., 10 min, read-out: ACAT Inhibitory Activity (In Vitro) (IC50)
Method: A. Assay of the Inhibition of Acyl-CoA: Cholesterol Acyltransferase (ACAT) in Hepatic Microsomes (In Vitro Assay)
The ability of the compounds to inhibit ACAT, the enzyme responsible for the intracellular synthesis of cholesteryl esters, was tested as follows. Male Sprague Dawley rats weighing 150-300 g, were fed rat chow ad libitum. The animals were fasted for twenty-four hours prior to being euthanized by CO2. The livers were perfused in situ with 50 ml of cold 0.25 sucrose, excised, and homogenized in three volumes of 0.1M phosphate buffer, pH 7.4, that contained 0.5 mM EDTA (ethylenediamine-tetraacetic acid), 1.0 mM glutathione, 0.25M sucrose and […] leupeptin. Microsomes were obtained by differential centrifugation; the supernatant from an initial spin at 15,000×g for 15 minutes was centrifuged at 105,000×g for 1 hour to pellet the microsomes. The microsomes were suspended in homogenization buffer, reisolated by centrifugation, and stored at -70° C. Microsomes were used within one month of preparation.
The control assay in a final volume of 200 μl consisted of 200 μg of microsomal protein, 75 μM ^14 C-oleoyl-CoA (10,000 dpm/nmol) in 0.1M phosphate, pH 7.4, that contained 1 mM glutathione. Compounds were added in 5 μl of DMSO (dimethyl sulfoxide) and additional controls were run with DMSO only. All components, except the oleoyl-CoA, were preincubated for 15 min. at 37° C. prior to the initiation of the reaction by the addition of oleoyl-CoA. The assay was terminated after 10 min by the addition of 4 ml of chloroform:methanol (2:1, v/v). 20,000 dpm of ^3 H-cholesteryl oleate and 10 μg of unlabeled cholesteryl oleate and oleic acid were added as an internal standard and carriers, respectively. After allowing 10 min. for lipid extraction, the samples were centrifuged at 1,000×g for 10 min to separate the solvent layers. The chloroform layer containing the neutral lipids was spotted onto a Baker SI250-Pa silica gel TLC plate and the plate developed using a hexane:diethyl ether:acetic acid (170:30:1) v/v/v) mobile phase. The lipids were visualized by their interaction with iodine vapor and the cholesteryl ester spot was scraped into a scintillation vial and counted. The specific activity of ACAT in the control incubation averaged 260 pmol/min/mg microsomal protein. The data obtained are expressed as the concentration at which ACAT activity is inhibited by 50% (IC50).

Row | IC50 [nM] | SMILES
1 | < 1000 | COc1ccc(C(SCc2ccc(F)cc2)C(=O)Nc2c(SC)cc(C)nc2SC)cc1 (stereo not drawn) [Example 124, N-[2,4-bis(methylthio)-6-methyl-3-pyridyl]-α-(4-fluoro-benzylthio)-4-methoxy-phenylacetamide]
2 | < 1000 | CSc1cc(C)nc(SC)c1NC(=O)C(Sc1ccccc1)c1ccccc1 (single isomer, unassigned) [Example 63, N-[2,4-his (methylthio)-6-methyl-3-pyridyl]-L-(+)-α-phenylthio-phenylacetamide]
3 | < 1000 | CSc1cc(C)nc(SC)c1NC(=O)C(SCc1ccccc1)c1ccc(F)cc1 (stereo not drawn) [Example 152, N-[2,4-bis(methylthio)-6-methyl-3-pyridyl]-α-benzylthio-4-fluoro-phenylacetamide]
4 | < 1000 | CSc1cc(C)nc(SC)c1NC(=O)C(SCc1ccccc1)c1ccc(Cl)cc1 (stereo not drawn) [Example 89, N-[2,4-bis(methylthio)-6-methyl-3-pyridyl]-α-benzylthio-4-chloro-phenylacetamide]
5 | < 1000 | CSc1cc(C)nc(SC)c1NC(=O)C(SCc1ccccc1)c1ccccc1 (single isomer, unassigned) [Example 47, N-[2,4-bis(methylthio)-6-methyl-3-pyridyl]-L-(+)-α-benzylthio-phenylacetamide]
6 | < 1000 | CSc1cc(C)nc(SC)c1NC(=O)C(SCc1ccc(F)cc1)c1ccc(C(F)(F)F)cc1 (stereo not drawn) [Example 380, N-[2,4-bis(methylthio)-6-methyl-3-pyridyl]-α-(4-fluoro-benzylthio)-4-trifluoromethyl-phenylacetamide]
7 | < 1000 | COc1ccc(CSC(C(=O)Nc2c(SC)cc(C)nc2SC)c2ccc(F)cc2)cc1 (stereo not drawn) [Example 154, N-[2,4-bis(methylthio)-6-methyl-3-pyridyl]-α-(4-methoxy-benzylthio)-4-fluoro-phenylacetamide]
8 | < 1000 | CCCCCCSC(C(=O)Nc1c(SC)cc(C)nc1SC)c1ccc(Cl)cc1 (stereo not drawn) [Example 85, N-[2,4-bis(methylthio)-6-methyl-3-pyridyl]-α-hexylthio-4-chloro-phenylacetamide]
9 | < 1000 | COc1ccc(CSC(C(=O)Nc2c(SC)cc(C)nc2SC)c2ccc(-c3ccccc3)cc2)cc1 (stereo not drawn) [Example 465, N-[2,4-bis(methylthio)-6-methyl-3-pyridyl]-α-(4-methoxy-benzylthio)-4-biphenylacetamide]
10 | < 1000 | CCCCCCSC(C(=O)Nc1c(SC)cc(C)nc1SC)c1ccc(OC)cc1 (stereo not drawn) [Example 118, N-[2,4-bis(methylthio)-6-methyl-3-pyridyl]-α-hexylthio-4-methoxy-phenylacetamide]
11 | 1000 to 10000 | CC(C)c1cccc(C(C)C)c1NC(=O)C(Sc1ccccc1)c1ccccc1 (single isomer, unassigned) [Example 64]
12 | < 1000 | CSc1cc(C)nc(SC)c1NC(=O)C(Sc1ccccc1)c1ccc(Cl)cc1 (stereo not drawn) [Example 102, N-[2,4-bis(methylthio)-6-methyl-3-pyridyl]-α-phenylthio-4-chloro-phenylacetamide]
13 | < 1000 | CCCCCCSC(C(=O)Nc1c(SC)cc(C)nc1SC)c1ccc(Oc2ccccc2)cc1 (stereo not drawn) [Example 288, N-[2,4-bis(methylthio)-6-methyl-3-pyridyl]-α-hexylthio-4-phenoxy-phenylacetamide]
14 | < 1000 | COc1ccc(C(SCc2ccc(F)cc2)C(=O)Nc2c(SC)cc(C)nc2SC)cc1OC (stereo not drawn) [Example 237, N-[2,4-bis(methylthio)-6-methyl-3-pyridyl]-α-(4-fluoro-benzylthio)-3,4-dimethoxy-phenylacetamide]
15 | < 1000 | CSc1cc(C)nc(SC)c1NC(=O)C(SCc1ccc(Cl)cc1)c1ccc(Oc2ccccc2)cc1 (stereo not drawn) [Example 295, N-[2,4-bis(methylthio)-6-methyl-3-pyridyl]-α-(4-chloro-benzylthio)-4-phenoxy-phenylacetamide]
16 | < 1000 | CCCCCCSC(C(=O)Nc1c(SC)cc(C)nc1SC)c1ccc(C(C)(C)C)cc1 (stereo not drawn) [Example 431, N-[2,4-bis(methylthio)-6-methyl-3-pyridyl]-α-hexylthio-4-tert-butylphenylacetamide]
17 | < 1000 | COc1ccc(C(Sc2ccccc2)C(=O)Nc2c(SC)cc(C)nc2SC)cc1 (stereo not drawn) [Example 135, N-[2,4-bis(methylthio)-6-methyl-3-pyridyl]-α-phenylthio-4-methoxy-phenylacetamide]
18 | < 1000 | CCCCCCSC(C(=O)Nc1c(SC)cc(C)nc1SC)c1cccc(Oc2ccccc2)c1 (stereo not drawn) [Example 316, N-[2,4-bis(methylthio)-6-methyl-3-pyridyl]-α-hexylthio-3-phenoxy-phenylacetamide]
19 | < 1000 | CCCCCCSC(C(=O)Nc1c(SC)cc(C)nc1SC)c1ccc(F)cc1F (stereo not drawn) [Example 204, N-[2,4-bis(methylthio)-6-methyl-3-pyridyl]-α-hexylthio-2,4-difluoro-phenylacetamide]
20 | < 1000 | CSc1cc(C)nc(SC)c1NC(=O)C(SCc1ccc(Cl)cc1)c1cccc(Oc2ccc(Br)cc2)c1 (stereo not drawn) [Example 326, N-[2,4-bis(methylthio)-6-methyl-3-pyridyl]-α-(4-chloro-benzylthio)-3-(4'-bromophenoxy)-phenylacetamide]
21 | < 1000 | CSc1cc(C)nc(SC)c1NC(=O)C(SCc1ccc(Cl)cc1)c1cccc(Oc2ccccc2)c1 (stereo not drawn) [Example 325, N-[2,4-bis(methylthio)-6-methyl-3-pyridyl]-α-(4-chloro-benzylthio)-3-phenoxy-phenylacetamide]
22 | < 1000 | COc1ccc(C(SCc2ccccc2)C(=O)Nc2c(SC)cc(C)nc2SC)cc1 (stereo not drawn) [Example 122, N-[2,4-bis(methylthio)-6-methyl-3-pyridyl]-α-benzylthio-4-methoxy-phenylacetamide]
23 | 1000 to 10000 | COc1ccc(C(OC)C(=O)Nc2c(SC)cc(C)nc2SC)cc1 (stereo not drawn) [Example 146, N-[2,4-bis(methylthio)-6-methyl-3-pyridyl]-α-O-methyl-4-methoxymandeloamide]
24 | < 1000 | COc1ccc(CSC(C(=O)Nc2c(SC)cc(C)nc2SC)c2ccc(Cl)cc2)cc1 (stereo not drawn) [Example 90, N-[2,4-bis(methylthio)-6-methyl-3-pyridyl]-α-(4-methoxy-benzylthio)-4-chloro-phenylacetamide]
25 | < 1000 | CSc1cc(C)nc(SC)c1NC(=O)C(SCc1ccc(F)cc1)c1ccc(Cl)c(Cl)c1 (stereo not drawn) [Example 181, N-[2,4-bis(methylthio)-6-methyl-3-pyridyl]-α-(4-fluoro-benzylthio)-3,4-dichloro-phenylacetamide]
26 | < 1000 | CSc1cc(C)nc(SC)c1NC(=O)C(SCc1ccc(C(C)(C)C)cc1)c1ccc(C(C)(C)C)cc1 (stereo not drawn) [Example 439, N-[2,4-bis(methylthio)-6-methyl-3-pyridyl]-α-(4-tert-butyl-benzylthio)-4-tert-butylphenylacetamide]
27 | < 1000 | COc1ccc(CSC(C(=O)Nc2c(SC)cc(C)nc2SC)c2ccc(OC)cc2)cc1 (stereo not drawn) [Example 125, N-[2,4-bis(methylthio)-6-methyl-3-pyridyl]-α-(4-methoxy-benzylthio)-4-methoxy-phenylacetamide]
28 | < 1000 | COc1ccc(C(Sc2ccc(F)cc2)C(=O)Nc2c(SC)cc(C)nc2SC)cc1 (stereo not drawn) [Example 136, N-[2,4-bis(methylthio)-6-methyl-3-pyridyl]-α-(4-fluoro-phenylthio)-4-methoxy-phenylacetamide]

Row | SMILES | IC50 [nM]
29 | CCCCOc1ccc(CSC(C(=O)Nc2c(SC)cc(C)nc2SC)c2ccc(C(C)C)cc2)cc1 (stereo not drawn) [Example 411, N-[2,4-bis(methylthio)-6-methyl-3-pyridyl]-α-(4-butoxy-benzylthio)-4-isopropylphenylacetamide] | < 1000
30 | CCCCCCSC(C(=O)Nc1c(SC)cc(C)nc1SC)c1ccc(OCCCC)cc1 (stereo not drawn) [Example 260, N-[2,4-bis(methylthio)-6-methyl-3-pyridyl]-α-hexylthio-4-butoxy-phenylacetamide] | < 1000
